# According to patent US10376520B2, “Methods for the treatment of cardiovascular disorders” (Galapagos NV, priority 2015, dated 2019):
# Test system: RA patients
# Test: LDL determination, Study 2 (RA patients, monotherapy)
# Assay type: in vivo, human
# Description: Randomized, double-blind, placebo-controlled, multicenter, phase IIb dose finding study of Compound 1 (dosed as a [Compound 1:HCl:3H2O]) administered for 24 weeks as monotherapy to subjects with moderately to severely active rheumatoid arthritis who have an inadequate response to methotrexate alone
# Double-blind, placebo-controlled, monotherapy study in subjects with moderately to severely active RA who have an inadequate response to methotrexate (MTX) (oral or parenteral).
# 280 subjects randomized to one of 3 doses of Compound 1 (dosed as a [Compound 1:HCl:3H2O]) or to placebo, given once daily (q.d.).
# Twelve weeks of treatment with Compound 1 (dosed as a [Compound 1:HCl:3H2O]) at 50 mg, 100 mg, or 200 mg q.d.; or placebo. At Week 12, all subjects on placebo and the subjects on the 50 mg dose who have not achieved 20% improvement in swollen joint count (SJC66) and tender joint count (TJC68) will be assigned to 100 mg q.d. in a blinded fashion and will continue treatment until Week 24. Subjects in the other groups will maintain their randomized treatment until Week 24.
# The determination of [LDL]-cholesterol is made using an automated method taking advantage of the selective micellary solubilization of [LDL]-cholesterol by a nonionic detergent and the interaction of a sugar compound and lipoproteins (VLDL and chylomicrons).
# When a detergent is included in the enzymatic method for cholesterol determination (cholesterol esterase, cholesterol oxidase coupling reaction), the relative reactivities of cholesterol in the lipoprotein fractions increase in this order: [HDL]<chylomicrons <VLDL <[LDL]. In the presence of Mg^2+, a sugar compound markedly reduces the enzymatic reaction of the cholesterol measurement in VLDL and chylomicrons. The combination of a sugar compound with detergent enables the selective determination of [LDL]-cholesterol in serum. (Friedewald et al., 1972; Rifai et al., 1992)
# Homogeneous enzymatic colorimetric assay.
# In the presence of peroxidase, the hydrogen peroxide generated reacts with 4-aminoantipyrine and Sodium N-(2-hydroxy-3-sulfopropyl)-3,5-dimethoxyaniline (HSDA) to form a purple-blue dye.
# The color intensity of this dye is directly proportional to the cholesterol concentration and is measured photometrically.
# Human serum and plasma samples [LDL] determination was done on a Roche/Hitachi Cobas c 701/702 system which automatically calculate the analyte concentration of each sample. Samples containing precipitates are centrifuged before performing the assay.
# [1] = Study 2 12 weeks results, 50 mg q.d., week 12
# [2] = Study 2 12 weeks results, 100 mg q.d., week 1
# [3] = Study 2 12 weeks results, 100 mg q.d., week 2
# [4] = Study 2 12 weeks results, 100 mg q.d., week 4
# [5] = Study 2 12 weeks results, 100 mg q.d., week 8
# [6] = Study 2 12 weeks results, 100 mg q.d., week 12
# [7] = Study 2 12 weeks results, 200 mg q.d., week 1
# [8] = Study 2 12 weeks results, 200 mg q.d., week 2
# [9] = Study 2 12 weeks results, 200 mg q.d., week 4
# [10] = Study 2 12 weeks results, 200 mg q.d., week 8
# [11] = Study 2 12 weeks results, 200 mg q.d., week 12
# [12] = Study 2 24 weeks results, 50 mg q.d. non responders switching to 100 mg q.d. at week 12, week 1
# [13] = Study 2 24 weeks results, 50 mg q.d. non responders switching to 100 mg q.d. at week 12, week 2
# [14] = Study 2 24 weeks results, 50 mg q.d. non responders switching to 100 mg q.d. at week 12, week 4
# [15] = Study 2 24 weeks results, 50 mg q.d. non responders switching to 100 mg q.d. at week 12, week 8
# [16] = Study 2 24 weeks results, 50 mg q.d. non responders switching to 100 mg q.d. at week 12, week 12
# [17] = Study 2 24 weeks results, 50 mg q.d. non responders switching to 100 mg q.d. at week 12, week 16
# [18] = Study 2 24 weeks results, 50 mg q.d. non responders switching to 100 mg q.d. at week 12, week 20
# [19] = Study 2 24 weeks results, 50 mg q.d. non responders switching to 100 mg q.d. at week 12, week 24
# [20] = Study 2 24 weeks results, 50 mg q.d. responders, week 1
# [21] = Study 2 24 weeks results, 50 mg q.d. responders, week 2
# [22] = Study 2 24 weeks results, 50 mg q.d. responders, week 4
# [23] = Study 2 24 weeks results, 50 mg q.d. responders, week 8
# [24] = Study 2 24 weeks results, 50 mg q.d. responders, week 12
# [25] = Study 2 24 weeks results, 50 mg q.d. responders, week 16
# [26] = Study 2 24 weeks results, 50 mg q.d. responders, week 20
# [27] = Study 2 24 weeks results, 50 mg q.d. responders, week 24
# [28] = Study 2 24 weeks results, 100 mg q.d., week 1
# [29] = Study 2 24 weeks results, 100 mg q.d., week 2
# [30] = Study 2 24 weeks results, 100 mg q.d., week 4
# [31] = Study 2 24 weeks results, 100 mg q.d., week 8
# [32] = Study 2 24 weeks results, 100 mg q.d., week 12
# [33] = Study 2 24 weeks results, 100 mg q.d., week 16
# [34] = Study 2 24 weeks results, 100 mg q.d., week 20
# [35] = Study 2 24 weeks results, 100 mg q.d., week 24
# [36] = Study 2 24 weeks results, 200 mg q.d., week 1
# [37] = Study 2 24 weeks results, 200 mg q.d., week 2
# [38] = Study 2 24 weeks results, 200 mg q.d., week 4
# [39] = Study 2 24 weeks results, 200 mg q.d., week 8
# [40] = Study 2 24 weeks results, 200 mg q.d., week 12
# [41] = Study 2 24 weeks results, 200 mg q.d., week 16
# [42] = Study 2 24 weeks results, 200 mg q.d., week 20
# [43] = Study 2 24 weeks results, 200 mg q.d., week 24
# [44] = Study 2 24 weeks results, placebo switching to 100 mg q.d. at week 12, week 16
# [45] = Study 2 24 weeks results, placebo switching to 100 mg q.d. at week 12, week 20
# [46] = Study 2 24 weeks results, placebo switching to 100 mg q.d. at week 12, week 24
# [47] = placebo switching to 100 mg q.d. at week 12, week 20
# [48] = placebo switching to 100 mg q.d. at week 12, week 24
smiles,measurement,setting,value
"O=C(Nc1nc2cccc(-c3ccc(CN4CCS(=O)(=O)CC4)cc3)n2n1)C1CC1 [Compound 1, cyclopropanecarboxylic acid {5-[4-(1,1-dioxo-thiomorpholin-4-ylmethyl)-phenyl]-[1,2,4]triazolo[1,5-a]pyridin-2yl}-amide]",[LDL] Mean CFB,[1],0.090 mmol/L
same,[LDL] Median CFB,[1],0.040 mmol/L
same,[LDL] Mean CFB,[2],0.116 mmol/L
same,[LDL] Median CFB,[2],0.070 mmol/L
same,[LDL] Mean CFB,[3],0.105 mmol/L
same,[LDL] Median CFB,[3],-0.050 mmol/L
same,[LDL] Mean CFB,[4],0.195 mmol/L
same,[LDL] Median CFB,[4],0.140 mmol/L
same,[LDL] Mean CFB,[5],0.162 mmol/L
same,[LDL] Median CFB,[5],0.140 mmol/L
same,[LDL] Mean CFB,[6],0.278 mmol/L
same,[LDL] Median CFB,[6],0.180 mmol/L
same,[LDL] Mean CFB,[7],0.209 mmol/L
same,[LDL] Median CFB,[7],0.180 mmol/L
same,[LDL] Mean CFB,[8],0.192 mmol/L
same,[LDL] Median CFB,[8],0.130 mmol/L
same,[LDL] Mean CFB,[9],0.216 mmol/L
same,[LDL] Median CFB,[9],0.290 mmol/L
same,[LDL] Mean CFB,[10],0.212 mmol/L
same,[LDL] Median CFB,[10],0.230 mmol/L
same,[LDL] Mean CFB,[11],0.347 mmol/L
same,[LDL] Median CFB,[11],0.315 mmol/L
same,[LDL] Mean CFB,[12],0.08 mmol/L
same,[LDL] Median CFB,[12],0.07 mmol/L
same,[LDL] Mean CFB,[13],0.00 mmol/L
same,[LDL] Median CFB,[13],-0.02 mmol/L
same,[LDL] Mean CFB,[14],0.17 mmol/L
same,[LDL] Median CFB,[14],0.05 mmol/L
same,[LDL] Mean CFB,[15],0.10 mmol/L
same,[LDL] Median CFB,[15],0.10 mmol/L
same,[LDL] Mean CFB,[16],0.11 mmol/L
same,[LDL] Median CFB,[16],0.09 mmol/L
same,[LDL] Mean CFB,[17],0.22 mmol/L
same,[LDL] Median CFB,[17],0.20 mmol/L
same,[LDL] Mean CFB,[18],0.03 mmol/L
same,[LDL] Median CFB,[18],-0.04 mmol/L
same,[LDL] Mean CFB,[19],0.14 mmol/L
same,[LDL] Median CFB,[19],0.15 mmol/L
same,[LDL] Mean CFB,[20],-0.01 mmol/L
same,[LDL] Median CFB,[20],-0.01 mmol/L
same,[LDL] Mean CFB,[21],-0.07 mmol/L
same,[LDL] Median CFB,[21],-0.06 mmol/L
same,[LDL] Mean CFB,[22],0.01 mmol/L
same,[LDL] Median CFB,[22],-0.05 mmol/L
same,[LDL] Mean CFB,[23],0.16 mmol/L
same,[LDL] Median CFB,[23],0.14 mmol/L
same,[LDL] Mean CFB,[24],0.09 mmol/L
same,[LDL] Median CFB,[24],0.03 mmol/L
same,[LDL] Mean CFB,[25],0.18 mmol/L
same,[LDL] Median CFB,[25],0.16 mmol/L
same,[LDL] Mean CFB,[26],0.00 mmol/L
same,[LDL] Median CFB,[26],0.12 mmol/L
same,[LDL] Mean CFB,[27],0.00 mmol/L
same,[LDL] Median CFB,[27],-0.01 mmol/L
same,[LDL] Mean CFB,[28],0.12 mmol/L
same,[LDL] Median CFB,[28],0.07 mmol/L
same,[LDL] Mean CFB,[29],0.10 mmol/L
same,[LDL] Median CFB,[29],-0.05 mmol/L
same,[LDL] Mean CFB,[30],0.19 mmol/L
same,[LDL] Median CFB,[30],0.14 mmol/L
same,[LDL] Mean CFB,[31],0.16 mmol/L
same,[LDL] Median CFB,[31],0.14 mmol/L
same,[LDL] Mean CFB,[32],0.28 mmol/L
same,[LDL] Median CFB,[32],0.18 mmol/L
same,[LDL] Mean CFB,[33],0.28 mmol/L
same,[LDL] Median CFB,[33],0.20 mmol/L
same,[LDL] Mean CFB,[34],0.25 mmol/L
same,[LDL] Median CFB,[34],0.23 mmol/L
same,[LDL] Mean CFB,[35],0.31 mmol/L
same,[LDL] Median CFB,[35],0.31 mmol/L
same,[LDL] Mean CFB,[36],0.21 mmol/L
same,[LDL] Median CFB,[36],0.18 mmol/L
same,[LDL] Mean CFB,[37],0.19 mmol/L
same,[LDL] Median CFB,[37],0.13 mmol/L
same,[LDL] Mean CFB,[38],0.22 mmol/L
same,[LDL] Median CFB,[38],0.29 mmol/L
same,[LDL] Mean CFB,[39],0.21 mmol/L
same,[LDL] Median CFB,[39],0.23 mmol/L
same,[LDL] Mean CFB,[40],0.35 mmol/L
same,[LDL] Median CFB,[40],0.32 mmol/L
same,[LDL] Mean CFB,[41],0.30 mmol/L
same,[LDL] Median CFB,[41],0.23 mmol/L
same,[LDL] Mean CFB,[42],0.29 mmol/L
same,[LDL] Median CFB,[42],0.25 mmol/L
same,[LDL] Mean CFB,[43],0.38 mmol/L
same,[LDL] Median CFB,[43],0.34 mmol/L
same,[LDL] Mean CFB,[44],0.07 mmol/L
same,[LDL] Median CFB,[44],-0.05 mmol/L
same,[LDL] Mean CFB,[45],0.16 mmol/L
same,[LDL] Median CFB,[45],0.03 mmol/L
same,[LDL] Mean CFB,[46],0.10 mmol/L
same,[LDL] Median CFB,[46],0.12 mmol/L
same,[LDL] Mean percentage CFB - 24 weeks results,"placebo switching to 100 mg q.d. at week 12, week 16",2.82%
same,[LDL] Mean percentage CFB - 24 weeks results,[47],5.77%
same,[LDL] Median percentage CFB - 24 weeks results,[47],1.00%
same,[LDL] Mean percentage CFB - 24 weeks results,[48],4.50%
same,[LDL] Median percentage CFB - 24 weeks results,[48],4.13%
